According to PubChem BioAssay (NCI):
Values joined by “and” are separate entries in the source; they are usually repeats but may differ in a detail not shown here. Identical values can stand only once.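 Exposure lasted 48 hours, with cells grown in 96-well plates and compounds tested at five concentrations. Here, GI50 denotes the concentration required for 50% inhibition of growth. TGI is the concentration that stops growth completely.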

Columns and labels:
Experiment in all cases: growth of human tumour cells (NCI), 48 h
[1] = system: 786-0 renal
[2] = system: A498 renal
[3] = system: A549 NSCLC
[4] = system: ACHN renal
[5] = system: BT-549 breast
[6] = system: CAKI-1 renal
[7] = system: CCRF-CEM leukemia
[8] = system: COLO 205 colon
[9] = system: DU-145 prostate
[10] = system: EKVX NSCLC
[11] = system: HCC-2998 colon
[12] = system: HCT-116 colon
[13] = system: HCT-15 colon
[14] = system: HL-60(TB) leukemia
[15] = system: HOP-62 NSCLC
[16] = system: HOP-92 NSCLC
[17] = system: HS 578T breast
[18] = system: HT29 colon
[19] = system: IGROV1 ovarian
[20] = system: K-562 leukemia
[21] = system: KM12 colon
[22] = system: LOX IMVI melanoma
[23] = system: M14 melanoma
[24] = system: MALME-3M melanoma
[25] = system: MCF7 breast
[26] = system: MDA-MB-231 breast
[27] = system: MDA-MB-435
[28] = system: MDA-N
[29] = system: MOLT-4 leukemia
[30] = system: NCI-H226 lung
[31] = system: NCI-H23 lung
[32] = system: NCI-H460 lung
[33] = system: NCI-H522 lung
[34] = system: NCI/ADR-RES ovarian
[35] = system: OVCAR-3 ovarian
[36] = system: OVCAR-4 ovarian
[37] = system: OVCAR-5 ovarian
[38] = system: OVCAR-8 ovarian
[39] = system: PC-3 prostate
[40] = system: RPMI-8226 leukemia
[41] = system: RXF 393 renal
[42] = system: SF-268 CNS
[43] = system: SF-295 CNS
[44] = system: SF-539 CNS
[45] = system: SK-MEL-2 melanoma
[46] = system: SK-MEL-28 melanoma
[47] = system: SK-MEL-5 melanoma
[48] = system: SN12C renal
[49] = system: SNB-19 CNS
[50] = system: SNB-75 CNS
[51] = system: SR leukemia
[52] = system: SW-620 colon
[53] = system: T-47D breast
[54] = system: TK-10 renal
[55] = system: U251 CNS
[56] = system: UACC-257 melanoma
[57] = system: UACC-62 melanoma
[58] = system: UO-31 renal
[59] = system: SK-OV-3 ovarian
[60] = system: DLD-1 colon
[61] = system: DMS 114 small cell lung
[62] = system: KM20L2 colon
[63] = system: LXFL 529 NSCLC
[64] = system: SNB-78 CNS

Cc1ccc(-c2n[nH]c(=O)n2/N=C\c2ccccc2)cc1
TGI [1]: > 100 µM
TGI [2]: > 100 µM
TGI [3]: > 100 µM
TGI [4]: > 100 µM
TGI [5]: > 73.8 µM
TGI [6]: > 100 µM
TGI [7]: > 100 µM
TGI [8]: > 100 µM
TGI [9]: > 100 µM
TGI [10]: > 100 µM
TGI [11]: > 100 µM
TGI [12]: > 100 µM
TGI [13]: > 100 µM
TGI [14]: > 100 µM
TGI [15]: 62.1 µM
TGI [16]: 66.4 µM
TGI [17]: 81.3 µM
TGI [18]: > 100 µM
TGI [19]: > 100 µM
TGI [20]: > 100 µM
TGI [21]: > 100 µM
TGI [22]: > 100 µM
TGI [23]: > 100 µM
TGI [24]: > 100 µM
TGI [25]: > 100 µM
TGI [26]: > 100 µM
TGI [27]: > 100 µM
TGI [28]: > 93.9 µM
TGI [29]: > 100 µM
TGI [30]: > 100 µM
TGI [31]: > 100 µM
TGI [32]: > 100 µM
TGI [33]: > 100 µM
TGI [34]: > 100 µM
TGI [35]: > 100 µM
TGI [36]: > 100 µM
TGI [37]: > 100 µM
TGI [38]: > 100 µM
TGI [39]: > 100 µM
TGI [40]: > 100 µM
TGI [41]: > 81.5 µM
TGI [42]: > 89.1 µM
TGI [43]: 69 µM
TGI [44]: > 100 µM
TGI [45]: 99.8 µM
TGI [46]: > 100 µM
TGI [47]: > 100 µM
TGI [48]: > 90.4 µM
TGI [49]: > 100 µM
TGI [50]: 80.3 µM
TGI [51]: > 100 µM
TGI [52]: > 100 µM
TGI [53]: > 100 µM
TGI [54]: > 100 µM
TGI [55]: > 100 µM
TGI [56]: > 100 µM
TGI [57]: > 100 µM
TGI [58]: > 100 µM

CCOP(=O)(OCC)C(C)(CC)NC(=O)C(C(F)(F)F)C(F)(F)F (configuration not stated)
TGI [1]: > 100 µM
TGI [2]: > 100 µM
TGI [3]: > 100 µM
TGI [4]: > 100 µM
GI50 [5]: 19.3 µM and 3.87 µM
TGI [5]: 99.7 µM and > 100 µM
TGI [6]: > 100 µM
TGI [7]: 48.7 µM and 53.1 µM
TGI [8]: > 100 µM
TGI [9]: > 100 µM
TGI [10]: > 100 µM
TGI [11]: > 100 µM
TGI [12]: > 100 µM
TGI [13]: > 100 µM
GI50 [14]: 25.8 µM
TGI [14]: 64.6 µM
TGI [15]: > 100 µM
TGI [16]: > 100 µM
TGI [17]: > 100 µM
TGI [18]: > 100 µM
TGI [19]: > 100 µM
GI50 [20]: 18.6 µM and 39.1 µM
TGI [20]: > 100 µM
TGI [21]: > 100 µM
TGI [22]: > 100 µM
TGI [23]: > 100 µM
TGI [24]: > 100 µM
TGI [25]: > 100 µM
GI50 [26]: > 100 µM
TGI [26]: > 100 µM
TGI [27]: > 100 µM
TGI [28]: > 100 µM
TGI [29]: > 100 µM
TGI [30]: > 100 µM
TGI [31]: > 100 µM
TGI [32]: > 100 µM
TGI [34]: > 100 µM
TGI [35]: > 100 µM
TGI [36]: > 100 µM
TGI [37]: > 100 µM
TGI [38]: > 100 µM
TGI [39]: > 100 µM
TGI [40]: > 81.6 µM and 59.7 µM
TGI [41]: > 100 µM
TGI [42]: > 100 µM
TGI [43]: > 100 µM
GI50 [44]: 48.1 µM and > 100 µM
TGI [44]: > 100 µM
TGI [45]: > 100 µM
TGI [46]: > 100 µM
TGI [47]: > 100 µM
TGI [59]: > 100 µM
TGI [48]: > 100 µM
TGI [49]: > 100 µM
GI50 [50]: > 71.6 µM
TGI [50]: > 100 µM
TGI [51]: > 100 µM
TGI [52]: > 100 µM
GI50 [53]: > 51.5 µM and 21.1 µM
TGI [53]: > 100 µM and 99.7 µM
TGI [54]: > 100 µM
TGI [55]: > 100 µM
TGI [56]: > 100 µM
GI50 [57]: > 100 µM
TGI [57]: > 100 µM
TGI [58]: > 100 µM

CC1=NN(C(=O)c2ccccc2O)C(=O)/C1=C/c1cccc([N+](=O)[O-])c1
TGI [1]: > 100 µM
TGI [2]: 0.801 µM
TGI [3]: > 100 µM
TGI [4]: > 100 µM
TGI [6]: > 100 µM
TGI [7]: > 100 µM
TGI [8]: > 100 µM
TGI [60]: > 100 µM
TGI [61]: 21.4 µM
TGI [9]: > 100 µM
TGI [10]: > 100 µM
TGI [11]: > 100 µM
TGI [12]: > 67.7 µM
TGI [13]: > 100 µM
TGI [14]: > 62.9 µM
TGI [16]: > 100 µM
TGI [18]: > 100 µM
TGI [20]: > 100 µM
TGI [21]: > 100 µM
TGI [62]: 63.6 µM
TGI [22]: > 78.5 µM
TGI [63]: > 100 µM
TGI [23]: > 100 µM
TGI [24]: > 100 µM
TGI [25]: > 100 µM
TGI [26]: > 100 µM
TGI [27]: > 100 µM
TGI [28]: > 100 µM
TGI [29]: > 100 µM
TGI [30]: > 100 µM
TGI [31]: > 31.8 µM
TGI [32]: > 100 µM
TGI [33]: 54.6 µM
TGI [34]: > 100 µM
TGI [35]: > 47.5 µM
TGI [36]: > 100 µM
TGI [37]: > 100 µM
TGI [38]: > 100 µM
TGI [39]: > 100 µM
TGI [40]: > 100 µM
TGI [42]: > 100 µM
TGI [43]: > 100 µM
TGI [44]: 5.88 µM
TGI [45]: > 21.9 µM
TGI [46]: > 100 µM
TGI [47]: > 100 µM
TGI [59]: > 100 µM
TGI [48]: 98.7 µM
TGI [49]: > 100 µM
TGI [50]: > 100 µM
TGI [64]: > 100 µM
TGI [51]: > 100 µM
TGI [52]: > 100 µM
TGI [53]: > 100 µM
TGI [54]: > 100 µM
TGI [55]: > 100 µM
TGI [56]: > 100 µM
TGI [57]: 27.1 µM
